Assay results as given in the NIST ThermoML archive (doi:10.1016/j.jct.2012.02.038).
“And” between values parts separate entries of the source, which are not always exact repeats. Equal values may be shown once.

Legend:
[1] = refractive index (other wavelength) (dimensionless); xn = mol fraction of the nth substance listed; settings: 101.3 kPa, Liquid, Wavelength=632.8 nm, Minimum deviation technique
[2] = refractive index (other wavelength) (dimensionless); settings: 101.3 kPa, Liquid, Wavelength=632.8 nm, Minimum deviation technique

COC(=O)CCCCC(=O)OC [dimethyl 1,6-hexanedioate] + CCCCCCCC
[1], 299.79 K
Settings	refractive index
x1 = 0.099	1.3955
x1 = 0.2	1.3985
x1 = 0.302	1.4014
x1 = 0.4	1.4047
x1 = 0.5	1.408
x1 = 0.602	1.4113
x1 = 0.701	1.4146
x1 = 0.8	1.418
x1 = 0.899	1.4214

CCCCCCCC [octane]
[2]
Settings	refractive index
293.23 K	1.3964
294.23 K	1.3959
295.29 K	1.3954
296.27 K	1.3949
297.41 K	1.3944
298.48 K	1.3939
299.5 K	1.3934

COC(=O)CCCCC(=O)OC [dimethyl 1,6-hexanedioate] + CCCCCCCCC
[1], 305.07 K
Settings	refractive index
x1 = 0.101	1.4
x1 = 0.2	1.4017
x1 = 0.295	1.404
x1 = 0.39	1.406
x1 = 0.492	1.4085
x1 = 0.594	1.411
x1 = 0.713	1.4143
x1 = 0.79	1.4163
x1 = 0.902	1.4197

COC(=O)CCCCC(=O)OC [dimethyl 1,6-hexanedioate]
[2]
Settings	refractive index
293.15 K	1.4275
294.14 K	1.4271
295.19 K	1.4267
296.25 K	1.4263
298.35 K	1.4254
299.4 K	1.425 and 1.4249
300.18 K	1.4246
301 K	1.4243
301.84 K	1.4239
302.58 K	1.4236
303.19 K	1.4234
303.88 K	1.4231

CCCCCCCCC [nonane]
[2]
Settings	refractive index
299.25 K	1.4015
300.07 K	1.4011
300.85 K	1.4007
301.85 K	1.4003
302.57 K	1.3999
303.3 K	1.3995
303.83 K	1.3993
